Data published in patent US20240131004A1, “FUNCTIONALIZED 1,3-BENZENE DIOLS AND THEIR METHOD OF USE FOR THE TREATMENT OF INFLAMMATION AND PAIN” (KANNALIFE SCIENCES, INC., priority 2021, published 2024).
“Also recorded” adds a separate entry of the source.

How the values were obtained:
[1] = tested on: dorsal root ganglion (DRG) cultures; assay: Alamar Blue cellular viability in DRG cultures, reversal of paclitaxel toxicity; assay type: cell-based, rat
Protocol: (§1) At the conclusion of each experiment, sister cultures to those assessed by image analysis were evaluated with either a fluorescent dye-based assays for neuronal viability (6-carboxyfluorescein diacetate, CFDA) or with viability dye Alamar Blue. The preferred dye was Alamar Blue as this assay of viability could be conducted and then the dye washed off the cultures for subsequent fixation and follow-up immunocytochemical assays. […] In addition, a portion of the reductive conversion of resazurin to the highly fluorescent resorufin in the Alamar Blue reagent is attributable to the action of mitochondrial reductases. Because of the need for enhanced sensitivity, the Alamar Blue assay was predominantly used for these studies. Similar results in assessing pharmacological responses were obtained with both assays (see Brenneman et al, 2019).
On every plate, wells without cells were used to provide a blank reading that was used to subtract background fluorescence. For the Alamar Blue viability assay, 10 ul of the dye was added directly to the culture well that contained 100 ul of nutrient medium (Ivanov et al., 2016). Incubation times with the dye ranged from 1-5 hrs., depending on the experimental goals. Fluorescence was measured at an excitation of 530 nm and an emission of 590 on a Cytofluor plate reader.
Referring to FIG. 1, cellular viability, as measured with the viability dye Alamar Blue, is shown with relative fluorescence units (RFU) in dorsal root ganglion (DRG) cultures after treatment with 3 μM paclitaxel for 8 hours followed by 16 hours treatment with various concentrations of KLS-13019. Reference lines are provided to depict the RFU levels for control cultures (medium dash) and cultures pre-treated only with 3 μM paclitaxel (dash-dot-dash) for eight hours. […] To confirm, all treated cultures were continuously exposed to paclitaxel throughout the 24-hour duration of the experiment. […] Each value is the mean of 6 determinations.

[2] = tested on: GPR55; assay: Cell body GPR55 immunoreactive area in DRG neurons, paclitaxel reversal paradigm, high content imaging; assay type: cell-based, rat
Protocol: (§2) The GPR55 antibody was obtained from abcam. […] The secondary antibodies were obtained from Life Technologies.
Responses of cell body GPR55 immunoreactive areas (μ^2) of neurons from dorsal root ganglion (DRG) cultures are shown in FIG. 2 after pretreatment with 3 μM paclitaxel for 8 hours followed by 16 hours treatment with various concentrations of KLS-13019. Reference lines are provided to depict the average cell body GPR55 area for control cultures (medium dash) and that of cultures pre-treated only with 3 μM paclitaxel (dash-dot-dash) for eight hours. […] Each value is the mean of 8 determinations. […] All assays were conducted by high content fluorescence imaging (Brenneman et al., 2018 and 2019).

[3] = tested on: interleukin-6 (IL-6); assay: Interleukin-6 immunoreactive area in cell bodies and neurites of DRG neurons, paclitaxel reversal paradigm; assay type: cell-based, rat
Protocol: as §2
(§3) Referring to FIG. 3, responses of interleukin-6 (IL-6) immunoreactive (IR) areas (μ^2) in cell bodies (open circles) and neurites (closed circles) of rat DRG neurons from dissociated cultures are shown after pretreatment with 3 μM paclitaxel for 8 hours followed by 16 hours treatment with various concentrations of KLS -13019. Reference lines are provided to depict the average cell body IL-6 area (medium dash) and neurites IL-6 (dash-dot-dash) from control cultures. The zero-concentration data point on both curves depicts values for cultures treated only with 3 μM paclitaxel. […] To confirm, all treated cultures were continuously exposed to paclitaxel throughout the 24-hour duration of the experiment. […] Each value is the mean of 8 determinations. […] All assays were conducted by high content fluorescence imaging (Brenneman et al., 2018 and 2019).

[4] = tested on: interleukin-1β (IL-1β); assay: Interleukin-1β immunoreactive area in cell bodies and neurites of DRG neurons, paclitaxel reversal paradigm; assay type: cell-based, rat
Protocol: as §2
as §3, with “Responses” for “Referring to FIG. 3, responses”, “interleukin-1β (IL-1β)” for “interleukin-6 (IL-6)”, “shown in FIG. 4” for “shown”, “pre-treatment” for “pretreatment”, “KLS-13019.” for “KLS -13019.”, “IL-1β” for “IL-6”

[5] = tested on: hippocampal cultures; assay: Alamar Blue cellular viability in hippocampal cultures, reversal of LPIA toxicity; assay type: cell-based, rat
Text: Because the scope of the anti-inflammatory actions of the 1,3-benzene diols included the central nervous system as well, hippocampal cultures were also employed as they express both mNCX-1 and GPR55, the two targets that mediate protection and inflammation, respectively. […] Poly-L-lysine-coated plates (BD Biosciences, Franklin Lakes, NJ) were used because of the preferential adherence and survival of neurons on this matrix support.
as §1, with “Similar results in assessing pharmacological responses were obtained with both assays (see Brenneman et al, 2019).” left out
On every plate, wells without cells were used to provide a blank reading that was used to subtract background fluorescence. […] Fluorescence was measured at an excitation of 530 nm and an emission of 590 on a Cytofluor plate reader. […]

[6] = tested on: GPR55; assay: Neuritic GPR55 immunoreactive area in DRG cultures, 6 h co-treatment with LPIA; assay type: cell-based, rat
Text: Because of the recognized importance of sensory neurons in DRG to transmitting peripheral nociception (Krames, 2014) and the reported accumulation of paclitaxel in DRG from models of CIPN (Duggett et al., 2016), the preparation of choice for the in vitro studies to study protection and anti-inflammation was dissociated cultures from rat DRG. DRG cultures derived from embryonic day 18 rats were employed as the primary assay system to study KLS-13019-properties. In brief, DRG were obtained commercially through Brain Bits (Springfield, IL) and cultures prepared with slight modifications to methods previously described (Brenneman et al., 2019). Tissue was dissociated with a papain-based kit from Worthington Biochemical Corporation (Lakewood, NJ). The DRG cells were plated at low density (10,000 cells/well) in a 96-well format and maintained in serum-free medium consisting of Neurobasal Medium supplemented with B27, GlutaMAX (Gibco) and 25 ng/ml Nerve Growth Factor. Poly-D-lysine coated plates (BD Biosciences, Franklin Lakes, NJ) were employed for this culture system. Prior to the initiation of experiments between days 5 and 9 in vitro, a complete change of medium was performed in a working volume of 100 μL.
To assess all antibody-based assays, immunocytochemical methods were employed. The goals for these assays included: 1) to assess the immunoreactive area of our molecular targets (IL-1β, IL-6, GPR55, NLRPA3) with their respective primary antibodies and distinctively labeled secondary antibodies; and 2) to compare the relative responses in both neuronal cell bodies and neurites. Prior to fixation, growth medium was removed and the wells were rinsed one time with 100 μL of DPBS (37° C.). This warm rinse is particularly important to maintain structural stability of neurites. After removal of the DPBS, cultures were fixed for 20 min at room temperature with 50 μL/well of 3.5% formaldehyde (Sigma-Aldrich: 252549) in warm (37° C.) DPBS that contained 5.5 μg/mL of Hoechst 33342 dye (Invitrogen: H3570) to label cell nuclei. […]

[7] = target: T1, human GPR55 (Homo sapiens, UniProt Q9Y2T6); assay: PathHunter β-arrestin assay, human GPR55 in CHO-K1 cell line; assay type: cell-based
T1 construct: host or cells: CHO-K1
T1 sequence (Q9Y2T6 whole entry): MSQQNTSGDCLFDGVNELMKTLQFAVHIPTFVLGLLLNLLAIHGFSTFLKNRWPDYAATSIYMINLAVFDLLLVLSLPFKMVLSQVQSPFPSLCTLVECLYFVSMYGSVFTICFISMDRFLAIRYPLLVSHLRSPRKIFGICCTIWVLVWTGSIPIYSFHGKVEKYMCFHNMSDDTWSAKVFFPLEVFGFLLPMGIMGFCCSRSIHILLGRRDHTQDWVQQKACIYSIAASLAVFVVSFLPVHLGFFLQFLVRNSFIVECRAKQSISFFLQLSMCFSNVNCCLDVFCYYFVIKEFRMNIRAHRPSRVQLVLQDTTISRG
Protocol: In this assay, agonist-induced activation of GPR55 stimulates binding of β-arrestin to the Pro-link-tagged GPCR and forces complementation of two enzyme fragments, resulting in the formation of an active β-galactosidase enzyme. This interaction leads to an increase in enzyme activity that can be measured using chemiluminescent PathHunter detection reagents. For our application, the GPR55 agonist lysophosphatidylinositol (LPI) was tested from 0.1 nM to 30 μM to increase the relative luminescent signal relative to that of control. […] For the GPR55 antagonism assay, KLS-13019 concentrations ranging from 0.1 nM to 30 μM were tested in the presence of 16 μM LPI. Concentrations of KLS-13019 ranging from 0.1 nM to 30 μM were tested alone for possible effects of agonistic activity on β-arrestin.
A PathHunter β-arrestin assay is shown in FIG. 8 that provides a measure of an antagonist mode assessment of KLS-13019 with a human GPR55 model system (Eurofins). To measure the β-arrestin response to a GPR55 agonist, various concentrations of lysophosphatidylinositol (LPI) were used as shown in the closed circles. […] Based on these findings, 16 μM LPI was incubated with various concentrations of KLS-13019 to test for antagonistic properties (closed inverted triangles). […] All assays were conducted with an N=10.

[8] = tested on: NLRP3; assay: Neuritic NLRP3 immunoreactive spot area in hippocampal neurons, LPIA reversal paradigm; assay type: cell-based, rat
Text: Tissue was dissociated with a papain-based kit from Worthington Biochemical Corporation (Lakewood, NJ).
To assess all antibody-based assays, immunocytochemical methods were employed. The goals for these assays included: 1) to assess the immunoreactive area of our molecular targets (IL-1β, IL-6, GPR55, NLRPA3) with their respective primary antibodies and distinctively labeled secondary antibodies; and 2) to compare the relative responses in both neuronal cell bodies and neurites. Prior to fixation, growth medium was removed and the wells were rinsed one time with 100 μL of DPBS (37° C.). This warm rinse is particularly important to maintain structural stability of neurites. After removal of the DPBS, cultures were fixed for 20 min at room temperature with 50 μL/well of 3.5% formaldehyde (Sigma-Aldrich: 252549) in warm (37° C.) DPBS that contained 5.5 μg/mL of Hoechst 33342 dye (Invitrogen: H3570) to label cell nuclei. After removal of the fixative, the cultures were rinsed twice with 100 μL of DPBS and then a permeabilization/blocking buffer containing 5% normal goat serum and 0.3% triton-X100 in DPBS was added to the cultures for 10 min. After removal of the blocking buffer, the cultures were rinsed twice with 100 μL of DPBS and then primary antibodies were added for one-hour incubation at room temperature. Neurons were identified with antiserum to type III beta tubulin (tuj 1) to measure changes in all neuronal parameters. The primary antiserum employed was rabbit anti-rat obtained from Sigma-Aldrich (T2200) and used at 1:200 dilution. The secondary was an Alexa Fluor 488-conjugated Fab fragment of goat anti-rabbit IgG obtained from Life Technologies (A11070) used at 1:600.

[9] = tested on: cultures of the central and peripheral nervous system; conditions: Kinney 2016; Brenneman 2018, 2019; US 9,611,213; US 10,004,722; cited from earlier work
[10] = 3 μM paclitaxel 8 h, then 16 h treatment

With C=C(C)[C@@H]1CCC(C)=C[C@H]1c1c(O)cc(CC2CN(C(C)=O)C2)cc1O [KLS-13019, 1-(3-(3,5-dihydroxy-4-((1R,6R)-3-methyl-6-(prop-1-en-2-yl)cyclohex-2-enyl)benzyl)azetidin-1-yl)ethenone] the “Protection of DRG cells from paclitaxel toxicity (efficacy)” value ([1]; 3 μM paclitaxel 8 h pre-treatment, then 16 h treatment, relative to control cultures) was “fully protect”, the EC50 ([1]; Rattus norvegicus, read-out: EC50 in reversing previously established paclitaxel toxicity (Alamar Blue)) was 0.2 nM and the “Reversal of paclitaxel-induced increase in cell body GPR55 area (efficacy)” value [2, 10] was “fully returned to the average area of control cultures”. The EC50 ([2]; Rattus norvegicus, DRG neuron, read-out: EC50 in reversing previously established increases in GPR55 area) was 2.31 nM, the “Reversal of paclitaxel-induced increase in IL-6 IR area in cell bodies and neurites (efficacy)” value [3, 10] was “fully returned to the average area of control cultures” and the IC50 ([3]; Rattus norvegicus, DRG neuron, read-out: IC50 in reversing previously established increases in IL-6 IR area) was 0.3 nM. For the same molecule, the “Reversal of paclitaxel-induced increase in IL-1β IR area in cell bodies and neurites (efficacy)” value [4, 10] was “fully restored to the average area of control cultures”, the IC50 ([4]; Rattus norvegicus, DRG neuron, read-out: IC50 in reversing previously established increases in IL-1β IR area) was 0.3 nM and the “Protection of hippocampal cells from LPIA toxicity (efficacy)” value ([5]; 1 nM LPIA 4 h, then 4 h treatment, relative to control cultures) was “fully protect”. For the same molecule, the EC50 ([5]; Rattus norvegicus, 4 h, read-out: EC50 in reversing previously established LPIA toxicity (Alamar Blue)) was 0.4 nM, the IC50 ([6]; Rattus norvegicus, 6 h, read-out: IC50 in preventing increases in GPR55 area) was 0.107 ± 0.019 nM and the “Effect on LPIA-induced increase in neuritic GPR55” value ([6]; co-treatment with 1 nM LPIA, 6 hours) was “blocked”. For the same molecule, the “Agonist activity on β-arrestin, compound alone” value ([7]; 0.1 nM to 30 μM tested alone) was “no detectible agonist activity; also recorded: no detectible increases in β-arrestin signal”, the “Antagonism of LPI-mediated increases in β-arrestin signal” value ([7]; 30 μM KLS-13019 in presence of 16 μM LPI, N=10) was “completely blocked” and the “NLRP3 spot areas compared with control cultures (efficacy of reversal)” value ([8]; 1 nM KLS-13019, equimolar to LPIA) was “not different from that of control cultures”. For the same molecule, the IC50 ([8]; Rattus norvegicus, Hippocampal neuron, 4 h, read-out: IC50 of decrease in neuritic NLRP3 area) was 0.129 ± 0.043 nM and the “Effect on oxidative stress and nerve cell damage in previous studies” value [9] was “prevent oxidative stress and nerve cell damage”.

In the case of CC(=O)O[C@H]1C(=O)[C@@]2(C)[C@H]([C@H](OC(=O)c3ccccc3)[C@]3(O)C[C@H](OC(=O)[C@H](O)[C@@H](NC(=O)c4ccccc4)c4ccccc4)C(C)=C1C3(C)C)[C@]1(OC(C)=O)CO[C@@H]1C[C@@H]2O [paclitaxel, reference compound], the “Effect of paclitaxel on cellular viability of DRG cultures” value ([1]; 3 μM paclitaxel) is reported as “toxicity”, the “Effect of paclitaxel on cell body GPR55 immunoreactive area” value ([2]; 3 μM paclitaxel, DRG cultures) is reported as “increases in GPR55 area” and the “Effect of paclitaxel on IL-6 IR area in cell bodies and neurites” value ([3]; 3 μM paclitaxel, DRG neurons) is reported as “increases in IL-6 (IR) area”. For the same molecule, the “Effect of paclitaxel on IL-1β IR area in cell bodies and neurites” value ([4]; 3 μM paclitaxel, DRG neurons) was “increases in IL-1β (IR) area”.
